{"source": "patent US12525646B2", "about": "“Ionic cyclic nitroxyl radical oligomers” (Wisconsin Alumni Research Foundation, priority 2021, dated 2026)", "type_in_all_cases": "physicochemical", "key": {"[1]": {"assay": "Electrochemical impedance spectroscopy (PEIS), Z-fitting to ideal Randle equivalent circuit", "conditions": "PEIS Z-fit"}, "[2]": {"assay": "Permeability through AMVN anion-exchange membrane", "conditions": "low ionic-conductivity AMVN membrane", "source_text": "Crossover of the TEMPO species is critical to RFB lifetime as it lowers the catholyte capacity through material loss and the anolyte capacity through chemical/electrochemical side reactions."}, "[3]": {"assay": "Viscosity of solutions versus volumetric capacity", "conditions": "compared with TMAP-TEMPO; reduced (uncharged) state", "source_text": "When determining the maximum cycling concentration with the water-miscible i-TEMPODs, the active molecule solubility no longer limits volumetric capacity as the interaction between the dissolved species and the water molecules are very thermodynamically favorable, and each TEMPO dimer is able to dissolve with a minimal amount of coordinated water. Instead, the cycling concentration will be limited by the electrolyte viscosity and its relation to pumping energy cost. The viscosity of representative TEMPO monomer and dimer solutions was experimentally measured at various volumetric capacities in their reduced (uncharged) states. FIG. 35A compares the viscosity of the i-TEMPODs to previously known TEMPO monomers, which are designated “OH”, “Nine”, and “TMAP”. Descriptions of these monomers can be found in: T. Liu, X. Wei, Z. Nie, V. Sprenkle, W. Wang, A Total Organic Aqueous Redox Flow Battery Employing a Low Cost and Sustainable Methyl Viologen Anolyte and 4-HO-TEMPO Catholyte. Adv. Energy Mater. 6 (2016); T. Janoschka, N. Martin, M. D. Hager, U. S. Schubert, An Aqueous Redox-Flow Battery with High Capacity and Power. The TEMPTMA/MV System. Angew. Chemie—Int. Ed. 55, 14427-14430 (2016); and Y. Liu, M. A. Goulet, L. Tong, Y. Liu, Y. Ji, L. Wu, R. G. Gordon, M. J. Aziz, Z. Yang, T. Xu, A Long-Lifetime All-Organic Aqueous Flow Battery Utilizing TMAP-TEMPO Radical. Chem. 5, 1861-1870 (2019). […]"}}}
{"smiles": "CC1(C)CC([N+](C)(C)C2CC(C)(C)N([O])C(C)(C)C2)CC(C)(C)N1[O]", "note": "[i-TEMPOD-1]", "values": [{"measurement": "C1", "setting": "[1]", "value": 264.7, "unit": "uF"}, {"measurement": "Rct", "setting": "[1]", "value": 17.43, "unit": "Ohm"}, {"measurement": "Ru", "setting": "[1]", "value": 27.54, "unit": "Ohm"}, {"measurement": "crossover with the AMVN membrane", "setting": "[2]", "value": "no detectible crossover"}, {"measurement": "viscosity at a given volumetric capacity", "setting": "[3]", "value": "nearly equal viscosity"}]}
